Test results reported in patent US12583835B2, “Crystal form of nitroxoline prodrug, pharmaceutical composition containing same, and preparation method therefor and application thereof” (Jiangsu Yahong Meditech Co., Ltd., priority 2020, dated 2026).
“And” between values parts separate entries of the source, which are not always exact repeats. Identical values can stand only once.

Experiments:
[1] = Pharmacokinetic assay in rats; type: in vivo; details: SD rats, oral 0.1 mmol/kg, 24 h, individual animals
Description: (§1) In this experiment, after a single intravenous or oral administration of nitroxoline and the compound obtained in Example 1 to rats, the changes in the concentration of the compound nitroxoline in rat plasma were studied, so as to evaluate the in vivo pharmacokinetic behaviors of nitroxoline and the compound obtained in Example 1 in rats.
Male SD rats (Beijing Vital River Laboratory Animal Technology Co., Ltd., laboratory animal production license No.: SCXK (Beijing) 2016-0006, laboratory animal certificate No.: 11400700325643), 3 rats per group, weight 180-250 g, 6-7 weeks old, were fasted overnight before drug administration with free access to water, and food was given 4 hours after drug administration. The compound to be tested was put into an EP tube, 1.017 mL dimethyl sulfoxide, 2.035 mL Solutol® and sterile water for injection (the volume ratio of the three was 1:2:17, v:v:v) were added, and the EP tube was sonicated for 20 minutes to fully dissolve the compound (formulation concentration of the compound: 0.005 mmol/mL). […]
Sample to be tested: to 50 μL of plasma sample to be tested was added 5 μL of diluted working solution, then 150 μL of internal standard working solution (a solution of 2 ng/mL diphenhydramine in acetonitrile), and the resulting solution was vortexed for 1 minute. […] Pharmacokinetic parameters were calculated using WinNonlin V6.2 non-compartmental model.

[2] = human; single-arm, open-label, multi-center phase II clinical trial; cited from earlier work
[3] = Pharmacokinetic assay in dogs; type: in vivo; details: beagles
Description: as §1, with “Nitroxoline is mainly metabolized by Phase II metabolism in the liver with a high metabolism rate, thus the in vivo half-life is short. In” for “In”, “to dogs,” for “to rats,”, “in dog” for “in rat”, “Example 1.” for “Example 1 in rats.”
Male beagles (Beijing Marshall Bioresources Co., Ltd., laboratory animal production license No.: SCXK (Beijing) 2016-0001, laboratory animal certificate No.: 11400600001728), 3 beagles per group, weight 10-13 kg, 20-22 months old, were fasted overnight before drug administration with free access to water, and food was given 4 hours after drug administration. The compound to be tested was put into an EP tube, dimethyl sulfoxide, Solutol® and sterile water for injection (the volume ratio of the three was 1:2:17, v:v:v) were added, and the EP tube was sonicated for 20 minutes to fully dissolve the compound (formulation concentration of the compound: 0.005 mmol/mL). The intravenous dose was 0.01 mmol/kg, and the oral dose was 0.1 mmol/kg. 0.3 ml of whole blood was collected from the jugular vein before drug administration (0 hour) and 0.0833, 0.25, 0.5, 0.75, 1, 2, 4, 6, 8, 10 and 12 hours after drug administration (the sampling points were adjusted according to the situation) and placed in a centrifuge tube containing EDTA-K2 (Aldrich Reagents) for anticoagulation, which was placed in crushed ice after sample collection. The tube was centrifuged at 1530 g for 10 minutes within 0.5 hours of sample collection. All clean plasma were isolated and placed in another clean centrifuge tube, which was placed in a −20° C. refrigerator until testing.
A series of solutions for standard curve was prepared. To 10 μL of solutions for standard curve and samples was added 1000 μL of internal standard working solution (a solution of 5 ng/mL verapamil (Aldrich Reagents), 50 ng/mL glibenclamide (Aldrich Reagents) and 50 ng/mL diclofenac (Aldrich Reagents) in acetonitrile) was added, and the resulting solution was vortexed for 5 minutes. After centrifuging at 4° C., 3700 rpm for 10 minutes, 60 μL of the supernatant was collected into a sample tube and mixed well with 120 μL of water, and 10 μL of the mixed solution was injected into the LC/MS system for determination. Pharmacokinetic parameters were calculated using WinNonlin V6.2 non-compartmental model.

Compound: O=[N+]([O-])c1ccc(O)c2ncccc12 [Nitroxoline, 5-nitro-8-hydroxyquinoline]
- Plasma concentration of nitroxoline [1]: <5.0 ng/mL (2×) and 14.6 ng/mL
- half-life [2]: 1.22 to 1.44 h
- AUC0-inf of nitroxoline in plasma ([3]; intravenous 0.01 mmol/kg): 3300 ng*hmL^−1
- AUC0-inf of nitroxoline in plasma ([3]; oral 0.1 mmol/kg): 4780 ng*hmL^−1
